Source: ChEMBL document CHEMBL1649532, “Trypanocidal activity of 8-methyl-5'-{[(Z)-4-aminobut-2-enyl]-(methylamino)}adenosine (Genz-644131), an adenosylmethionine decarboxylase inhibitor” (Antimicrob Agents Chemother, 2009)
Converted amounts (≈) assume the structure as drawn. The source made the active and inactive calls. The rule behind the calls is not given here.

Experiments:
[1] = tested on: Trypanosoma brucei rhodesiense; assay: Trypanocidal activity against Trypanosoma brucei rhodesiense KETRI2002 infected in mouse assessed as cure rate at 50 mg/kg, ip BID administered 24 hrs postinfection; type: functional; conditions: route intraperitoneal
[2] = tested on: Trypanosoma brucei rhodesiense; assay: Trypanocidal activity against Trypanosoma brucei rhodesiense KETRI1992 infected in mouse assessed as average survival time at 25 mg/kg, ip QD administered 24 hrs postinfection; type: functional; conditions: route intraperitoneal
[3] = tested on: Trypanosoma brucei brucei; assay: Trypanocidal activity against Trypanosoma brucei brucei EATRO infected in mouse assessed as protection against trypanosomal infection at 5 mg/kg, ip BID for 4 days; type: functional, organism-based; set-up: dose 5 mg/kg
[4] = tested on: Trypanosoma brucei rhodesiense; assay: Trypanocidal activity against Trypanosoma brucei rhodesiense KETRI2002 infected in mouse assessed as protection against trypanosomal infection at 10 mg/kg, ip QD administered 24 hrs postinfection; type: functional, organism-based; set-up: dose 10 mg/kg
[5] = tested on: Trypanosoma brucei brucei; assay: Trypanocidal activity against Trypanosoma brucei brucei 667 infected in mouse assessed as average day of relapse of trypanosomal infection at 25 mg/kg, ip BID for 14 days; type: functional; conditions: route intraperitoneal
[6] = tested on: Trypanosoma brucei brucei; assay: Trypanocidal activity against Trypanosoma brucei brucei 667 infected in mouse assessed as average day of relapse of trypanosomal infection at 100 mg/kg, ip BID for 14 days; type: functional; conditions: route intraperitoneal
[7] = tested on: Trypanosoma brucei brucei; assay: Trypanocidal activity against Trypanosoma brucei brucei 667 infected in mouse assessed as average day of relapse of trypanosomal infection at 10 mg/kg, ip BID for 4 days; type: functional; conditions: route intraperitoneal
[8] = tested on: Trypanosoma brucei rhodesiense; assay: Trypanocidal activity against Trypanosoma brucei rhodesiense KETRI2002 infected in mouse assessed as cure rate at 50 mg/kg, ip QD administered 24 hrs postinfection; type: functional; conditions: route intraperitoneal
[9] = tested on: Trypanosoma brucei rhodesiense; assay: Trypanocidal activity against Trypanosoma brucei rhodesiense KETRI2002 infected in mouse assessed as average survival time at 50 mg/kg, ip QD administered 24 hrs postinfection; type: functional; conditions: route intraperitoneal
[10] = tested on: Trypanosoma brucei brucei; assay: Trypanocidal activity against Trypanosoma brucei brucei 667 infected in mouse assessed as average day of relapse of trypanosomal infection at 10 mg/kg, ip BID for 21 days; type: functional; conditions: route intraperitoneal
[11] = tested on: Trypanosoma brucei brucei; assay: Trypanocidal activity against Trypanosoma brucei brucei 667 infected in mouse assessed as average day of relapse of trypanosomal infection at 100 mg/kg, ip BID for 7 days; type: functional; conditions: route intraperitoneal
[12] = tested on: Trypanosoma brucei rhodesiense; assay: Trypanocidal activity against Trypanosoma brucei rhodesiense KETRI2002 infected in mouse assessed as average survival time at 25 mg/kg, ip BID administered 24 hrs postinfection; type: functional; conditions: route intraperitoneal
[13] = tested on: Trypanosoma brucei brucei; assay: Trypanocidal activity against Trypanosoma brucei brucei EATRO infected in mouse assessed as protection against trypanosomal infection at 50 mg/kg, ip BID for 4 days; type: functional, organism-based; set-up: dose 50 mg/kg
[14] = tested on: Trypanosoma brucei brucei; assay: Trypanocidal activity against Trypanosoma brucei brucei EATRO infected in mouse assessed as mean survival time at 5 mg/kg, ip QD for 4 days; type: functional; conditions: route intraperitoneal
[15] = tested on: Trypanosoma brucei rhodesiense; assay: Trypanocidal activity against Trypanosoma brucei rhodesiense KETRI1992 infected in mouse assessed as protection against trypanosomal infection at 50 mg/kg, ip QD administered 24 hrs postinfection; type: functional, organism-based; set-up: dose 50 mg/kg
[16] = tested on: Trypanosoma brucei brucei; assay: Trypanocidal activity against Trypanosoma brucei brucei EATRO after 48 hrs; type: functional, organism-based
[17] = tested on: Trypanosoma brucei rhodesiense; assay: Trypanocidal activity against Trypanosoma brucei rhodesiense KETRI243 infected in mouse assessed as average survival time at 50 mg/kg, ip QD administered 24 hrs postinfection; type: functional; conditions: route intraperitoneal
[18] = tested on: Trypanosoma brucei rhodesiense; assay: Trypanocidal activity against Trypanosoma brucei rhodesiense KETRI243 infected in mouse assessed as average survival time at 10 mg/kg, ip QD administered 24 hrs postinfection; type: functional; conditions: route intraperitoneal
[19] = tested on: Trypanosoma brucei brucei; assay: Trypanocidal activity against Trypanosoma brucei brucei EATRO infected in mouse assessed as protection against trypanosomal infection at 10 mg/kg, ip BID for 4 days; type: functional, organism-based; set-up: dose 10 mg/kg
[20] = tested on: Trypanosoma brucei rhodesiense; assay: Trypanocidal activity against Trypanosoma brucei rhodesiense KETRI243 infected in mouse assessed as average survival time at 50 mg/kg, ip BID administered 24 hrs postinfection; type: functional; conditions: route intraperitoneal
[21] = tested on: Trypanosoma brucei brucei; assay: Trypanocidal activity against Trypanosoma brucei brucei EATRO infected in mouse assessed as mean survival time at 2 mg/kg, ip QD for 4 days; type: functional; conditions: route intraperitoneal
[22] = tested on: Trypanosoma brucei brucei; assay: Trypanocidal activity against Trypanosoma brucei brucei EATRO infected in mouse assessed as protection against trypanosomal infection at 2 mg/kg, ip QD for 4 days; type: functional, organism-based; set-up: dose 2 mg/kg
[23] = tested on: Trypanosoma brucei brucei; assay: Trypanocidal activity against Trypanosoma brucei brucei EATRO infected in mouse assessed as mean survival time at 2 mg/kg, ip BID for 4 days; type: functional; conditions: route intraperitoneal
[24] = tested on: Trypanosoma brucei brucei; assay: Trypanocidal activity against Trypanosoma brucei brucei 667 infected in mouse assessed as average day of relapse of trypanosomal infection at 10 mg/kg, ip BID for 7 days; type: functional; conditions: route intraperitoneal
[25] = tested on: Trypanosoma brucei brucei; assay: Trypanocidal activity against Trypanosoma brucei brucei EATRO infected in mouse assessed as mean survival time at 50 mg/kg, ip BID for 4 days; type: functional; conditions: route intraperitoneal
[26] = tested on: Trypanosoma brucei brucei; assay: Trypanocidal activity against Trypanosoma brucei brucei EATRO infected in mouse assessed as mean survival time at 1 mg/kg, ip QD for 4 days; type: functional; conditions: route intraperitoneal
[27] = tested on: Trypanosoma brucei brucei; assay: Trypanocidal activity against Trypanosoma brucei brucei EATRO infected in mouse assessed as cure rate at 1 mg/kg, ip QD for 4 days; type: functional; conditions: route intraperitoneal
[28] = tested on: Trypanosoma brucei brucei; assay: Trypanocidal activity against Trypanosoma brucei brucei EATRO infected in mouse assessed as protection against trypanosomal infection at 50 mg/kg, ip QD for 4 days; type: functional, organism-based; set-up: dose 50 mg/kg
[29] = tested on: Trypanosoma brucei rhodesiense; assay: Trypanocidal activity against Trypanosoma brucei rhodesiense KETRI243 after 48 hrs; type: functional, organism-based; conditions: KETRI243, 48 h
[30] = tested on: Trypanosoma brucei brucei; assay: Trypanocidal activity against Trypanosoma brucei brucei EATRO infected in mouse assessed as mean survival time at 10 mg/kg, ip BID for 4 days; type: functional; conditions: route intraperitoneal
[31] = tested on: Trypanosoma brucei rhodesiense; assay: Trypanocidal activity against Trypanosoma brucei rhodesiense KETRI243 infected in mouse assessed as protection against trypanosomal infection at 25 mg/kg, ip QD administered 24 hrs postinfection; type: functional, organism-based; set-up: dose 25 mg/kg
[32] = tested on: Trypanosoma brucei brucei; assay: Trypanocidal activity against Trypanosoma brucei brucei EATRO infected in mouse assessed as mean survival time at 5 mg/kg, ip BID for 4 days; type: functional; conditions: route intraperitoneal

In the case of `Cc1nc2c(N)ncnc2n1[C@@H]1O[C@H](CN(C)C/C=C\CN)[C@@H](O)[C@H]1O`, the Activity [1] is reported as 80%, the MST [2] is reported as 18.6 days and the Activity [3] is reported as “Active”. The Activity [4] was “inactive”, the MST [5] was 70.3 days and the MST [6] was 72 days. It also gave an MST [7] of 36 days, an Activity [8] of 80% and an MST [9] of 21 days. The MST [10] was 61.8 days, the MST [11] was 68.8 days and the MST [12] was 19.3 days. The Activity [13] was “Active”, the MST [14] was greater than 35 days and the Activity [15] was “inactive”. It also gave an IC50 [16] of 0.58 ng/mL (≈ 1.6 nM), an MST [17] of 17.2 days and an MST [18] of 13.2 days. The Activity [19] was “Active”, the MST [20] was 23.3 days and the MST [21] was greater than 35 days. For the same compound, the Activity [22] was “Active”, the MST [23] was greater than 35 days and the MST [24] was 53 days. It also gave an MST [25] greater than 35 days, an MST [26] of 13.5 days and an Activity [27] greater than 50%. The Activity [28] was “Active”, the IC50 [29] was 3.75 ng/mL (≈ 10.3 nM) and the MST [30] was greater than 35 days. For the same compound, the Activity [31] was “inactive” and the MST [32] was greater than 35 days.
